Reference: ChEMBL document CHEMBL1201862, “PubChem BioAssay data set” (2004)
The source made the active and inactive calls.

Experiments:
[1] = Luminescence Cell-Based Dose-Confimation HTS to Identify Inhibitors of 5'UTR Stem-Loop Driven Alpha-Synuclein mRNA Translation in H4 Neuroglioblastoma Cells. [Related pubchem assays: 1827 (Project Summary), 1813 (Primary HTS)]; format: functional
HEK293 [2] = assay: cells; format: functional, cell-based; conditions: Homo sapiens
HEK293 [3] = assay: inhibition of NOD1-driven NF-kB reporter – cell-based, luminescence, uHTS, primary screen (AID 1578); format: functional; conditions: Homo sapiens
[4] = biological target: T1, Neuropeptide Y receptor type 2 (Homo sapiens, UniProt P49146); assay: IC50 for human NPY-Y2 blockade – cell-based, counter-screen for NPY-Y1 antagonist project, dose response (AID 1278); format: functional
T1 sequence (P49146 whole entry): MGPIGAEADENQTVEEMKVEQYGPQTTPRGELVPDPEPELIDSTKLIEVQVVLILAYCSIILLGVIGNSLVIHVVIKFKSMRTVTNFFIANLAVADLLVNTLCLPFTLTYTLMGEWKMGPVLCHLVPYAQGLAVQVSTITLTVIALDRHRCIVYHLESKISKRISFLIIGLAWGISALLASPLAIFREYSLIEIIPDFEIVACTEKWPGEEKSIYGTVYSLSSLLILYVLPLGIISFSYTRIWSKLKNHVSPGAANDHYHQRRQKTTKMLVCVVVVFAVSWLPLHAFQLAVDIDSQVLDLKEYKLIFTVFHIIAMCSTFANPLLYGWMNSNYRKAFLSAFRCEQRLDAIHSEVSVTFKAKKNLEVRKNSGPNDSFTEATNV

[5] = Trypanosoma cruzi growth suppression in host cells – NIH3T3 host cells, beta-gal luminescence, confirmation (AID 2044); format: functional, cell-based;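 further: intracellular parasites grown in NIH/3T3 mouse fibroblasts as host cells; luminescent beta-galactosidase reporter signal from transgenic T. cruzi replicating inside host cells; inhibitors lower the luminescence signal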
HEK293 [6] = assay: cells; format: functional, cell-based; conditions: Homo sapiens; remark: listed apart in the source
[7] = biological target: T2, Neuropeptide Y receptor type 1 (Homo sapiens, UniProt P25929); assay: IC50 of human NPY-Y1 blockers – cell-based, dose response (AID 1277); format: functional
T2 sequence (P25929 whole entry): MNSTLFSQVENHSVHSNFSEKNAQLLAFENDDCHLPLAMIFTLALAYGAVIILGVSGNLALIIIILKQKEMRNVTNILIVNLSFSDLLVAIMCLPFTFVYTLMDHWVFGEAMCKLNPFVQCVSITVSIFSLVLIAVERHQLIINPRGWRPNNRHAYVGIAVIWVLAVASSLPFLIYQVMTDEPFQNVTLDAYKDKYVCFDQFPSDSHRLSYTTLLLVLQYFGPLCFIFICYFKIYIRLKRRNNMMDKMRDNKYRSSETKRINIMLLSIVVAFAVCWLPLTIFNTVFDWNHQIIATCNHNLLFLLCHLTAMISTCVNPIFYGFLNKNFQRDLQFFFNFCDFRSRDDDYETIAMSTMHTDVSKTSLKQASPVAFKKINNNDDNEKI

[8] = biological target: T3, Microphthalmia-associated transcription factor (Homo sapiens, UniProt O75030); assay: reducers of TRPM1 reporter luminescence, concentration series – cell-based, SK-MEL-5, cherry-picked, set 3, MITF inhibitor project, dose response (AID 493073); format: functional;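 further: SK-MEL-5 melanoma cells with luciferase driven by the MITF target TRPM1 promoter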
T3 sequence (O75030 whole entry): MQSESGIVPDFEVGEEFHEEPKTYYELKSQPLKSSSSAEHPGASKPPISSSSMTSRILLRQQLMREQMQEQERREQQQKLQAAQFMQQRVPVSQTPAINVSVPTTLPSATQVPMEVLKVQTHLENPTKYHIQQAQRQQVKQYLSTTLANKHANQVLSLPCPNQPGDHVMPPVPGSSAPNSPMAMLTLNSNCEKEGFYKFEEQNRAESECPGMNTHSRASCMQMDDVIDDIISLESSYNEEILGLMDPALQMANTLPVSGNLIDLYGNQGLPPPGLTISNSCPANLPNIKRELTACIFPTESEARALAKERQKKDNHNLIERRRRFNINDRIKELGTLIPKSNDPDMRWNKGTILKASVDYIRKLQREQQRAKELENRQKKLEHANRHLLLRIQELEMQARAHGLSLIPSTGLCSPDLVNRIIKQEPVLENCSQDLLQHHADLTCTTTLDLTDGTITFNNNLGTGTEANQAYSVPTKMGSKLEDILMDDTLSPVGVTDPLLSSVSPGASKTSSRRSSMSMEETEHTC

[9] = NIH3T3 cell viability loss – ATP luminescence, mouse fibroblasts, counter-screen, dose response (AID 2010); format: functional, cell-based;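 further: cells exposed to compound for about 90 hours before reading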
HEK293 [10] = assay: NOD2 signaling inhibitors in MDP-stimulated cells, cell-based, uHTS, luminescence (AID 2001); format: functional; conditions: Homo sapiens
[11] = biological target: Peroxisome proliferator-activated receptor gamma/Nuclear receptor corepressor 2 (Homo sapiens, UniProt P37231+Q9Y618); format: functional
Sequence of Peroxisome proliferator-activated receptor gamma/Nuclear receptor corepressor 2 (P37231 whole entry): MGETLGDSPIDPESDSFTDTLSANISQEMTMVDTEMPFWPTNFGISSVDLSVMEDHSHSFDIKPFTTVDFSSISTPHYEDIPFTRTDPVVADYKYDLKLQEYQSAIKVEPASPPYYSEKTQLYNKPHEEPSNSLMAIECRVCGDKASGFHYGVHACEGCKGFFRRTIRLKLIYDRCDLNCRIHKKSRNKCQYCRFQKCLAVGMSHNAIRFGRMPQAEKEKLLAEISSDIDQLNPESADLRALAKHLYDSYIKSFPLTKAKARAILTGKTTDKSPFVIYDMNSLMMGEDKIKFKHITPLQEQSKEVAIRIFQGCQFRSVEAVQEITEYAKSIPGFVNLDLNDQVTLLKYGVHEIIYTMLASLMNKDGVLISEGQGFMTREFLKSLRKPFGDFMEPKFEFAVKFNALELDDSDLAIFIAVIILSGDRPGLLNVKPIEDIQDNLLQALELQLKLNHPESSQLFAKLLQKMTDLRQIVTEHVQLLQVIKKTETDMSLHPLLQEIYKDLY
Sequence of Peroxisome proliferator-activated receptor gamma/Nuclear receptor corepressor 2 (Q9Y618 whole entry): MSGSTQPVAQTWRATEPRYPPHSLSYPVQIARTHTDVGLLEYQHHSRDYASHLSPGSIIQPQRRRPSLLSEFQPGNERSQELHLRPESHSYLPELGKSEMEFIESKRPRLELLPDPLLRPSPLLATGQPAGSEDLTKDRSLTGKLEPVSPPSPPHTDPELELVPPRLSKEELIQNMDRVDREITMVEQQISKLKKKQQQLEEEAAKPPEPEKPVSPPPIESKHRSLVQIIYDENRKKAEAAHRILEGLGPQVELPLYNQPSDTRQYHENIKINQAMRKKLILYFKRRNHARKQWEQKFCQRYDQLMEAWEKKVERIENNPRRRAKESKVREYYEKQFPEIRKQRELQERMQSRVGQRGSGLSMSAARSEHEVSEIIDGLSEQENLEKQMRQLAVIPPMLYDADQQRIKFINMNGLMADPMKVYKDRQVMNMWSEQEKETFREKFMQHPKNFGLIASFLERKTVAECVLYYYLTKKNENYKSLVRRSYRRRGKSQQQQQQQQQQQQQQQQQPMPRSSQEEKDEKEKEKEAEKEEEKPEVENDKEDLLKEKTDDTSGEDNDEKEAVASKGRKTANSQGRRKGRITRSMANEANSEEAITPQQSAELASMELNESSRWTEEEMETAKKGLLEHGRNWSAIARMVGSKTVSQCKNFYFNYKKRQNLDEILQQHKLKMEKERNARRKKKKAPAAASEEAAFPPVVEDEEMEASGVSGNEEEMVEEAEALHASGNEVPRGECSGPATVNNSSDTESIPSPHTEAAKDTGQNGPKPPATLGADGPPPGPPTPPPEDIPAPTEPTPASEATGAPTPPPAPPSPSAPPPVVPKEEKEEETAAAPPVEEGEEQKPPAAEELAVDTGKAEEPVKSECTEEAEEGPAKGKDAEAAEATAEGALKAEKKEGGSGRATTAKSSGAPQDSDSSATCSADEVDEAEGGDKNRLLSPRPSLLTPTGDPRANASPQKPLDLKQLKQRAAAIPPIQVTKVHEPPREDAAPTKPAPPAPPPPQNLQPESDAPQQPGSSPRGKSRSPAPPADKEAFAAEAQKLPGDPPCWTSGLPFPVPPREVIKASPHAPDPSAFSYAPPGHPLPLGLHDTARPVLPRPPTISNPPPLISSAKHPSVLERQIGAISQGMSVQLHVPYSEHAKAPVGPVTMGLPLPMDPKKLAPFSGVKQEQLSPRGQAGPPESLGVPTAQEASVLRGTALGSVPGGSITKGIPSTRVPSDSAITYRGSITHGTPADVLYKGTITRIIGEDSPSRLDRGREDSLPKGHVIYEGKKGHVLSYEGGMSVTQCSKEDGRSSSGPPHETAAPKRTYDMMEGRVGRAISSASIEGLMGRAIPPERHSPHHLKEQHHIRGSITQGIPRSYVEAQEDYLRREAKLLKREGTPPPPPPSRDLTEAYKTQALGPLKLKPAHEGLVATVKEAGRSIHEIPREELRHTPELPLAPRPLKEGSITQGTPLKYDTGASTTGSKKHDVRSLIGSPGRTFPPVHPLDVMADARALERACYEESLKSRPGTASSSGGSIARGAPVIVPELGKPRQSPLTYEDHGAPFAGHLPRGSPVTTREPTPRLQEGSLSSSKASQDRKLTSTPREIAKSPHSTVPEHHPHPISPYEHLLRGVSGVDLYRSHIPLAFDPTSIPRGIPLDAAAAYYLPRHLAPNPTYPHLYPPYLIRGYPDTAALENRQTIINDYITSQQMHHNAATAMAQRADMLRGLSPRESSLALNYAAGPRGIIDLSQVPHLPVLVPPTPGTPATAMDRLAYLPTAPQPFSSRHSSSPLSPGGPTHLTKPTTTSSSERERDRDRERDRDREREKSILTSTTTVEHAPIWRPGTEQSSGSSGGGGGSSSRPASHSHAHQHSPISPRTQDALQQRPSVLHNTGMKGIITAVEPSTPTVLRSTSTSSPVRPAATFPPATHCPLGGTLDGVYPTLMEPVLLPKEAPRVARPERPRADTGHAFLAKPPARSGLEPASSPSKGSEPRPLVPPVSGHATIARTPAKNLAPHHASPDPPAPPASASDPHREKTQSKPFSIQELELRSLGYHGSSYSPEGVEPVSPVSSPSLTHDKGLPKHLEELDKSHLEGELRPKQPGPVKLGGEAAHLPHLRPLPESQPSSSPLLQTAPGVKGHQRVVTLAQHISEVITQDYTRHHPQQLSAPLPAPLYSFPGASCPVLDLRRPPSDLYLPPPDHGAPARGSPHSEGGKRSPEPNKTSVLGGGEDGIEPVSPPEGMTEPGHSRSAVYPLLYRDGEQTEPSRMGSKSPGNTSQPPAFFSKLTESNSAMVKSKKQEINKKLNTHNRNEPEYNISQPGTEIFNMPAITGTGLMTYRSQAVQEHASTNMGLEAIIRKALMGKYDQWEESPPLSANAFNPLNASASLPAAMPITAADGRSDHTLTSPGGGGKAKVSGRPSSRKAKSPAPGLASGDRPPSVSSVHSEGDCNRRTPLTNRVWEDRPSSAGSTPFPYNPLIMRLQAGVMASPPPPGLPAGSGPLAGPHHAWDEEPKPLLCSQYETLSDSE

[12] = biological target: Photoreceptor-specific nuclear receptor (Homo sapiens, UniProt Q9Y5X4); format: functional;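 further: potency for compounds that break the NR2E3 corepressor complex and count as activators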
[13] = biological target: T4, Heat shock factor protein 1 (Mus musculus, UniProt P38532); assay: enhancement of HSF1-driven luciferase signal – cell-based, NIH3T3, luminescence, dose retest, confirmation (AID 435004); format: functional;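 further: stress induced by proteasome inhibitor MG132 added 30 min after compound; luciferase reporter driven by HSF1 response element in NIH3T3 cells; actives raise luminescence as potentiators of the MG132 stress response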
T4 sequence (P38532 whole entry): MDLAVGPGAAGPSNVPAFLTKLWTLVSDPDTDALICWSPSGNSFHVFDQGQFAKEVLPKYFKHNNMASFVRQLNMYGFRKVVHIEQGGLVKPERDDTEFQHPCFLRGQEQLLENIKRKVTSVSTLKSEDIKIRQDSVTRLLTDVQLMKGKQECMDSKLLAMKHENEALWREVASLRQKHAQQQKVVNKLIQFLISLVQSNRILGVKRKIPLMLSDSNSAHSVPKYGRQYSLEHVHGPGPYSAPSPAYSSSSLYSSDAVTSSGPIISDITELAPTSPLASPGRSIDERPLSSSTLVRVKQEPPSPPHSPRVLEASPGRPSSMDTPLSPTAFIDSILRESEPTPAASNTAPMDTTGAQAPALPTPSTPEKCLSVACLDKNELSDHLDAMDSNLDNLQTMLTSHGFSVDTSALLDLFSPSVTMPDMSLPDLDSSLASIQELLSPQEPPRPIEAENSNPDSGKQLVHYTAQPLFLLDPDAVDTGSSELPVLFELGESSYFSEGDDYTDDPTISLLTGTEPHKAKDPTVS

[14] = biological target: T2, Neuropeptide Y receptor type 1; format: functional
[15] = biological target: T1, Neuropeptide Y receptor type 2; format: functional, cell-based
[16] = biological target: Sphingosine 1-phosphate receptor 2 (Homo sapiens, UniProt O95136); assay: Dose Response Cell Based Assay for Agonists of the S1P2 Receptor of Purchased Analogues. [Related pubchem assays: 729, 843, 854, 736 ]; format: functional
Sequence of Sphingosine 1-phosphate receptor 2 (O95136 whole entry): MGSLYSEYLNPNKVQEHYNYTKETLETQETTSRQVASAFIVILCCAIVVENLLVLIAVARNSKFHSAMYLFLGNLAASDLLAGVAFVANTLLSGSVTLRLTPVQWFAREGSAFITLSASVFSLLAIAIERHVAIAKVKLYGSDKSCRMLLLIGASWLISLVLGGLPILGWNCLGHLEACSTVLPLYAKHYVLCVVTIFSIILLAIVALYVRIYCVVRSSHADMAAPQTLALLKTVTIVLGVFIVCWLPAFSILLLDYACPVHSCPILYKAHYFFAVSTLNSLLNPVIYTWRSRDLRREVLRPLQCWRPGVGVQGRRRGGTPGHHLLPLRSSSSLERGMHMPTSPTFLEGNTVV

[17] = biological target: Scavenger receptor class B member 1 (Mus musculus, UniProt Q61009); assay: mouse SR-BI DiI-HDL uptake blockers – ldlA[mSR-BI] cells, fluorescence, cherry pick, dose response (AID 493194); format: functional, cell-based;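 further: cellular uptake of fluorescent DiI-labeled HDL measured as cell fluorescence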
Sequence of Scavenger receptor class B member 1 (Q61009 whole entry): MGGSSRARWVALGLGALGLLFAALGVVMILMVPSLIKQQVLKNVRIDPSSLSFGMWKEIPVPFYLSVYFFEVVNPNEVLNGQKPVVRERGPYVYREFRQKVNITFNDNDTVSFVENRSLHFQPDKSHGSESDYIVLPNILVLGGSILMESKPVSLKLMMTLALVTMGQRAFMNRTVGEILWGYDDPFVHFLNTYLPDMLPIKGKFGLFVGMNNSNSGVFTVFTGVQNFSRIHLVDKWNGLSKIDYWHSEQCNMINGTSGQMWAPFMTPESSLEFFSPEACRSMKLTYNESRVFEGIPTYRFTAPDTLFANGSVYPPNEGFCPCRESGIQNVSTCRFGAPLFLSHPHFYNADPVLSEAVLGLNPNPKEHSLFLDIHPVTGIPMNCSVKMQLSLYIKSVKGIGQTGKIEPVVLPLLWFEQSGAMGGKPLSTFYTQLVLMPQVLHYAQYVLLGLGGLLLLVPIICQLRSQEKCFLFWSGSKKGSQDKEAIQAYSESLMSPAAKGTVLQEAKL

cells [18] = format: functional, cell-based
cells [19] = format: functional, cell-based; remark: listed apart in the source
INS1 = assay: INS-1E survival protection against cytokine death – cell-based, luminescence, retest, dose response (AID 449756); format: functional; conditions: Rattus norvegicus;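 further: cell death triggered by IL-1 beta plus TNF-alpha plus IFN-gamma mixture; protective hits raise ATP signal compared with cytokine alone wells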
[20] = Luminescence Cell-Based Dose Response HTS to Identify Inhibitors of 5'UTR Stem-Loop Driven Prion Protein mRNA Translation in H4 Neuroglioblastoma Cells. [Related pubchem assays: 1827 (Project Summary), 1813 (Primary HTS)]; format: functional
[21] = viability loss of HPDE-C7K cells – cell-based, fluorescence, HTS, primary screen (AID 431); format: functional; conditions: Homo sapiens
[22] = mitochondrial function rescue without frataxin homolog – Friedreich's ataxia, plus single-dose screen, dose response (AID 1465); format: functional;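 further: yeast depleted of Yfh1p frataxin homolog grown on glycerol needing respiration; WST-1 tetrazolium dye reduction as measure of cellular dehydrogenase metabolic activity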
[23] = bead-based luminescence quenchers, dual-tagged ARNT – biochemical, AlphaScreen, cherry-pick, artefact control for ARNT-TACC3 interaction inhibitor project, dose response (AID 651705); format: functional;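 further: AlphaScreen bead proximity signal that flags compounds interfering with the detection technology; potency reflects signal decrease which marks the compound as an assay artifact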
[24] = luciferase reporter signal suppression in cells – H4 neuroglioma cells, luminescence, dose response (AID 1990); format: functional, cell-based
[25] = HPDE-C7 pancreatic duct cell viability loss – fluorescence, HTS (AID 430); format: functional, cell-based; conditions: Homo sapiens
Nonstructural protein 1 = Nonstructural protein 1 (Influenza A virus, UniProt Q194T2); format: functional, Influenza A virus (A/California/07/2009(H1N1))
Sequence of Nonstructural protein 1 (Q194T2 whole entry): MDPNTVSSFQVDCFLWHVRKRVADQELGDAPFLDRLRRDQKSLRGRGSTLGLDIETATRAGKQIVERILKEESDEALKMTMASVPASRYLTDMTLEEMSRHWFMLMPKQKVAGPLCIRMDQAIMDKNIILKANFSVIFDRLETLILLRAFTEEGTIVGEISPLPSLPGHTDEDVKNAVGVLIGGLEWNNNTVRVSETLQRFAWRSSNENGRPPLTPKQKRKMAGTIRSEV

[26] = alpha-synuclein stem-loop luciferase translation blockers – H4 neuroglioma cells, luminescence, confirmation (AID 1988); format: functional, cell-based

Structure (SMILES): CC(C)c1ccc(-n2nnnc2SCc2nc(N)nc(N)n2)cc1
- EC50 [1]: > 100 µM (not active)

Structure (SMILES): CC1CC(C)CN(C2=CC(=[N+]3CCCC3)CC(C)(C)C2)C1 (stereo not drawn)
- IC50 (HEK293 [2]): > 20 µM (inactive)
- EC50 (HEK293 [3]): 2.22 µM (active)
- IC50 [4]: > 35 µM (not active)
- EC50 [5]: 0.159 µM (active)
- IC50 (HEK293 [6]): 7.24 µM (active)
- IC50 [7]: 15.1 µM (not active)
- AC50 [8]: 2.24 µM (active)
- EC50 [9]: > 60 µM (not active)
- IC50 (HEK293 [10]): 12.3 µM (inactive)

Structure (SMILES): COc1cc(C2C(C(=O)c3cc4ccccc4o3)=C(O)C(=O)N2c2cc(C)on2)cc(OC)c1OC (stereo not drawn)
- IC50 [11]: 4.1 µM (active)
- IC50 [12]: > 39.8 µM (not active)
- EC50 [13]: > 260 µM (inactive)

Structure (SMILES): CCOc1ccc(Oc2c(/C=N/NC(C)=O)c(C)nn2-c2ccccc2)cc1
- IC50 [14]: 8.9 µM (active)
- IC50 [15]: 4.53 µM (active)

Structure (SMILES): Cc1cc(C(=O)COC(=O)CCS(=O)(=O)c2ccccc2)c(C)n1Cc1ccccc1
- EC50 [16]: > 30 µM (not active)

Structure (SMILES): O=C(Nc1nc(NC(=O)c2ccco2)n(-c2ccccc2)n1)c1ccccc1
- AC50 [17]: 13.4 µM (active)
- EC50 (cells [18]): > 350 µM (not active)
- EC50 (cells [19]): > 350 µM (not active)
- AC50 (INS1): 2.96 µM (active)
- EC50 [20]: 5.2 µM (active)
- EC50 [21]: 6.1 µM (active)
- EC50 [22]: > 100 µM (active)
- AC50 [23]: 127 µM (active)
- EC50 [24]: 10 µM (active)
- EC50 [25]: 3.73 µM (active)
- IC50 (Nonstructural protein 1): 85.9 µM (active)
- EC50 [26]: 7.85 µM (active)
